Measurements published in patent US20130269058A1, “PLANTS RESISTANT TO FUNGAL PATHOGENS AND METHODS FOR PRODUCTION THEREOF” (GENOPLANTE-VALOR, priority 2010, published 2013).

Legend:
[1] = system: PR5 and PDX223 classical defense genes; experiment: Chitin sprayed on healthy rice plants; defense gene expression by QRT-PCR normalized by actin; format: in vivo, rice (Oryza sativa L., cultivar Nipponbare); details: chitin fragments sprayed on healthy rice plants; timing relative to WAK91 induction
Experimental: (§1) FIG. 2: Chitin induces WAK91 expression. Chitin fragments (two concentrations) were sprayed on healthy rice plants. Chitin alone is sufficient to induce WAK91 (up to 4×) in entire plants after 15 minutes. The PR5 and PDX223 classical defense genes are induced later. (A) The expression value of the WAK91, PR5 and PDX223 gene expression (normalized by actin) was measured at the indicated time after treatment. (B) The expression value after chitin treatment was divided by the expression value in untreated plants and the ratio was log transformed.
(§2) Gene expression was performed using Quantitative RT-PCR as described in Vergne et al (2007). For RT-QPCR applications, frozen tissue were ground in liquid nitrogen. Approximately 500 μl of powder was then treated with 1 ml of TRIZOL supplied by Invitrogen, vortexed for 30 s and incubated at room temperature for 15 minutes. […] Two microlitres of cDNA (dilution 1/10) were then used for quantitative RT-PCR. Quantitative RT-PCR mixtures contained PCR buffer, dNTP (0.25 mM), MgCl2 (2.5 mM), forward and reverse primers ([…]), 1 U of HotGoldStar polymerase and SYBR Green PCR mix as per the manufacturer's recommendations (Eurogentec, Seraing, Belgium). […] The quantitative RT-PCR (QRT-PCR) reactions were performed using a MX3000P machine (Stratagene) and data were extracted using the MX3000P software. […]

[2] = system: WAK91 gene expression; experiment: Chitin sprayed on healthy rice plants; WAK91 expression by QRT-PCR normalized by actin; format: in vivo, rice (Oryza sativa L., cultivar Nipponbare)
Experimental: as §1, §2

## chitin
[1]
  induction of PR5 and PDX223 defense genes (in words): induced later
[2]; chitin fragments (two concentrations) sprayed on healthy rice plants, entire plants, after 15 minutes, versus untreated plants
  induction of WAK91 expression: up to 4 ×
[2]; chitin used as described in Miya et al (2007), FIG. 2
  WAK91 induction (in words): sufficient to cause WAK91 induction
